# Measured values published in patent publication US20240226158A9, “ADMINISTRATION OF TUMOR INFILTRATING LYMPHOCYTES WITH MEMBRANE BOUND INTERLEUKIN 15 TO TREAT CANCER” (OBSIDIAN THERAPEUTICS, INC., priority 2021, published 2024).
# System: IL15 signaling pathway (pSTAT5, pS6)
# Assay: phospho-flow cytometry assay of IL15 expression and signaling
# Type: cell-based, human
# Settings: regulated mbIL15 TILs, 18 hours, 4 donors
# Method: Pre-REP TILs were prepared similarly to the methods of Example 1-3 and 9, and unengineered and mbIL15 TIL generated accordingly as described in Examples 1-3 and 9. Engagement of the IL15 signaling pathway results in phosphorylation of signal transducers downstream, including the transcription factor protein STATS and ribosomal protein S6. […] Next, the regulated mbIL15 TILs were regulated for 18 hours in the presence of a range of concentrations of ACZ including 0.1, 1, 2.5, 5, 10, 25, 100 μM, as well as vehicle control. The regulated mbIL15 TILs were then collected for staining and FACS analysis.
# Briefly, cells were stained using antibodies for CD3, CD4, CD8, IL15 and a Live/Dead marker. Then cells were fixed in 2% formaldehyde (BD Cytofix) and permeabilized using a methanol-based buffer (BD Phospho Perm III Buffer) before staining with antibodies specific for phosphorylated STATS (Biolegend) and S6 (Cell Signaling Technology). Cells were acquired on the BD Symphony and analyzed using FlowJo software.
# In order to compare different strategies for IL15 expression, TILs were utilized that constitutively express mbIL15 and regulated mbIL15 TILs. Cryopreserved unengineered TILs, constitutive mbIL15 TILs, and regulated mbIL15 TILs, from three human donors were thawed and then rested in ACZ-free media for 24 hours. […] Cells were acquired on the BD Fortessa and analyzed using FlowJo software.
smiles,measurement,value
"CC(=O)Nc1nnc(S(N)(=O)=O)s1 [ACZ, acetazolamide]","relationship between ACZ and IL15 expression and signaling (pSTAT5, pS6)",dose-dependent relationship
